The values below come from patent US6388071B2, “Alkynyl phenyl heteroaromatic glucokinase activators” (Hoffmann-La Roche Inc., priority 2000, dated 2002).

As usually defined, the melting point is the temperature, or range, at which the solid turns liquid.

As to `C#Cc1ccc(C(CC2CCCC2)C(=O)Nc2nccs2)cc1` (stereo not drawn) [Example 1, 3-Cyclopentyl-2-(4-ethynyl-phenyl)-N-thiazol-2-yl-propionamide], the melting point fell in the range of 181 to 183 °C.

Regarding `O=C(Nc1nccs1)C(CC1CCCC1)c1ccc(C#CC2(O)CCCCC2)cc1` (stereo not drawn) [Example 2, 3-Cyclopentyl-2-[4-(1-hydroxy-cyclohexylethynyl)-phenyl]-N-thiazol-2-yl-propionamide], the melting point lay in the range of 172 to 173 °C.

`COCC#Cc1ccc(C(CC2CCCC2)C(=O)Nc2nccs2)cc1` (stereo not drawn) [Example 3, 3-Cyclopentyl-2-[4-(3-methoxy-prop-1-ynyl)-phenyl]-N-thiazol-2-yl-propionamide] returned a melting point of 170 to 172 °C.

In the case of `CCC(C)(O)C#Cc1ccc(C(CC2CCCC2)C(=O)Nc2nccs2)cc1` (stereo not drawn) [Example 4, 3-Cyclopentyl-2-[4-(3-hydroxy-3-methyl-pent-1-ynyl)-phenyl]-N-thiazol-2-yl-propionamide], the melting point lay in the range of 172 to 174 °C.

Regarding `CC(O)CC#Cc1ccc(C(CC2CCCC2)C(=O)Nc2nccs2)cc1` (stereo not drawn) [Example 5, 3-Cyclopentyl-2-[4-(4-hydroxy-pent-1-ynyl)-phenyl]-N-thiazol-2-yl-propionamide], the melting point lay in the range of 162 to 163 °C.

`O=C(Nc1nccs1)C(CC1CCCC1)c1ccc(C#CCO)cc1` (stereo not drawn) [Example 6, 3-Cyclopentyl-2-[4-(3-hydroxy-prop-1-ynyl)-phenyl]-N-thiazol-2-yl-propionamide]: the melting point fell in the range of 220 to 222 °C.

`CN(C)CC#Cc1ccc(C(CC2CCCC2)C(=O)Nc2nccs2)cc1` (stereo not drawn) [Example 7]: the melting point lay in the range of 164 to 167 °C.

`O=C(Nc1nccs1)C(CC1CCCC1)c1ccc(C#Cc2ccccn2)cc1` (stereo not drawn) [Example 9, 3-Cyclopentyl-2-(4-pyridin-2-ylethynyl-phenyl)-N-thiazol-2-yl-propionamide]: the melting point was in the range of 185 to 187 °C.

With `O=C(Nc1nccs1)C(CC1CCCC1)c1ccc(C#Cc2cncnc2)cc1` (stereo not drawn) [Example 10, 3-Cyclopentyl-2-(4-pyrimidin-5-ylethynyl-phenyl)-N-thiazol-2-yl-propionamide], the melting point lay in the range of 149 to 151 °C.
